# According to patent US20190030046A1, “USE OF PURE COMPOUNDS EXTRACTED FROM ANTRODIA CAMPHORATA” (priority 2016, published 2019):
# Key:
# [1] = HFD-induced diabetic mice: absolute tissue weight, body weight, food intake; type: in vivo, C57BL/6J mice; details: 4 weeks
# Source text: (§1) The difference indicates the daily food intake.
# [2] = HFD-induced diabetic mice: liver lipids; type: in vivo, C57BL/6J mice; details: 4 weeks
# [3] = HFD-induced diabetic mice: histopathology (H-E) of epididymal white adipose and liver tissue; type: in vivo, C57BL/6J mice; details: epididymal white adipose, 4 weeks
# Protocol: as §1
# Examination was performed for parts of EWAT (epididymal white adipose) and liver tissue specimens collected. The specimens above were soaked in formalin and neutral buffered solution and embedded in paraffin. Parts therein (8 μm) were cut and stained with hematoxylin and eosin. Images were photographed by a microscope (Olympus BX51, Olympus, Tokyo, Japan). Please refer to FIGS. 3(A) and 3(B).
# [4] = HFD-induced diabetic mice: fasting blood glucose and biochemical indexes; details: 4 weeks; for Blood glucose: 12 h fasted HFD mice; for Insulin / Leptin: blood
# Protocol: The control group and HFD group contained 10% and 45% fat intake, respectively. The HFD mice were subdivided into 6 groups (9 per group) followed by 8-week induction. […] During the experiment, all mice were fasted overnight, and blood samples were collected from the retro-orbital sinus. Following four-week treatment and feeding, the food was removed, and the mice were fasted for 12 h and then sacrificed. Tissue samples required were collected from the mice and weighted. Some of the tissue samples were immediately stored at −80° C. and frozen for subsequent target gene analysis. Plasma samples were collected via centrifugation of whole blood at 1600×g for 15 min at 4° C., followed by plasma separation within 30 min. Some plasma samples obtained were used for TG and TC analysis. The metabolic parameters, including body weight, weight gain, and food intake, were performed as follows. Body weight was daily measured throughout the study. Body weight gain is considered as the difference between one day and the next day. The total weight of food intake was daily measured, followed by weighing the amount of remaining feed after 24 h. The difference indicates the daily food intake.
# One part of the forgoing blood samples collected from the retro-orbital sinus of 12 h fasted mice was immediately used for analysis of glucose levels. The other part was used for analysis of blood TG, TC, free fatty acids, blood insulin, leptin, and adiponectin levels. Blood glucose levels were determined by a glucose analyzer (Model 1500 sidekick glucose analyzer, YSI). Plasma triglycerides (TG), total cholesterol (TC), and free fatty acids (FFA) were determined using commercial kits in accordance with manufacturer's instructions (Triglycerides-E test, Cholesterol-E test, and FFA-C test; Wako Pure Chemical, Osaka, Japan). Insulin and leptin levels were measured by enzyme-linked immunosorbent assay (ELISA) (mouse insulin ELISA kit, Mercodia, Uppsala, Sweden; mouse leptin ELISA kit, Morinaga, Yokohama, Japan).
# membrane GLUT4 [5] = test: Membrane GLUT4 protein expression in C2C12 myotube cells (Western blot); type: cell-based; details: 25 min
# Protocol: (§2) In the present invention, C2C12 skeletal myoblasts (ATCC, CRL-1772) were maintained in growth media consisting of Dulbecco's modified Eagle's medium (DMEM) (Gibco BRL) and supplemented with 10% Fetal Bovine Serum (FBS) (Hyclone) and 100 U/mL penicillin/100 μg/mL streptomycin (Gibco BRL), and split 1:4 using 0.05% trypsin when 80% confluent. Myoblasts were diluted and placed in a 9 cm-diameter dish. Cells were cultured to achieve 80%-90% confluency and then the growth media was changed as 2% FBS/DMEM every 24 h for 5-7 days.
# (§3) In experiments for determining GLUT4 and p-Akt(Ser473)/t-Akt proteins in tubes, differentiated C2C12 cells were serum-starved in DMEM/BSA for 2 h at 37° C. prior to incubation with MeOH crude extract (at 20, 100, 200, and 500 μg/mL), test compounds (at 1, 5, 10, and 25 μg/mL), or vehicle for 25 min, or 100 nM insulin for 25 min.
# (§4) The cultures obtained by cell culture above were centrifuged, and the resulting pellet was resuspended in a homogenization buffer. The forgoing steps were performed with a filtration membrane. Protein concentrations were measured using a BCA assay (Pierce). Equal amounts of protein were diluted four times in SDS sample buffer, and subjected to SDS PAGE and Western blotting with antibodies specific for Akt, p-Akt Ser^473, and GLUT4. Density blotting analysis was performed using Alpha Easy FC software.
# [6] = system: phospho-Akt(Ser473)/total-Akt(Ser473); test: phospho-Akt(Ser473)/total-Akt in C2C12 myotube cells (Western blot); type: cell-based; details: 25 min
# Protocol: as §2, §3, §4
# G6-Pase = test: Semiquantitative RT-PCR in liver tissue: G6-Pase; type: in vivo, C57BL/6J mice; details: vs HF; HF+Metf, 0.3 g/kg/day oral, 4 weeks
# Protocol: as §1
# (§5) Total RNA from liver tissue was isolated with a Trizol Reagent (Molecular Research Center, Inc., Cincinnati, Ohio, USA) according to the manufacturer's instructions. The integrity of the extracted total RNA was examined by 2% agarose gel electrophoresis, and the RNA concentration was determined by […] ultraviolet (UV) light absorbency at 260 nm and 280 nm (Spectrophotometer U-2800A, Hitachi). The total RNA (1 μg) was reverse transcribed to cDNA, and 5 μL Moloney murine leukemia virus reverse transcriptase (TEpicentre, Madison, Wis., USA). The PCR was performed in a final 25 μL containing 1 U Blend Taq-Plus (TOYOBO, Japan), 10 μL of the RT cDNA product, 10 μM of each forward (F) and reverse (R) primer, 75 mM Tris-HCL (pH 8.3) containing 1 mg/L Tween 20 (pH 8.3, also known as polyoxyethylene sorbitan monolaurate), 2.5 mM dNTP (deoxy-ribonucleoside triphosphate), and 2 mM MgCl2 (magnesium chloride). The PCR products were analyzed by 2% agarose gel and stained with ethidium bromide.
# 11β-HSD1 = test: Semiquantitative RT-PCR in liver tissue: 11β-HSD1; type: in vivo, C57BL/6J mice; details: vs HF; HF+Metf, 0.3 g/kg/day oral, 4 weeks
# Protocol: as §1, §5
# SREBP-1c = test: Semiquantitative RT-PCR in liver tissue: SREBP-1c; type: in vivo, C57BL/6J mice; details: vs HF; HF+Metf, 0.3 g/kg/day oral, 4 weeks
# Protocol: as §1, §5
# aP2 = test: Semiquantitative RT-PCR in liver tissue: aP2; type: in vivo, C57BL/6J mice; details: vs HF; HF+Metf, 0.3 g/kg/day oral, 4 weeks
# Protocol: as §1, §5
# GPAT = test: Semiquantitative RT-PCR in liver tissue: GPAT; type: in vivo, C57BL/6J mice; details: vs HF; HF+Metf, 0.3 g/kg/day oral, 4 weeks
# Protocol: as §1, §5
# SREBP-2 = test: Semiquantitative RT-PCR in liver tissue: SREBP-2; type: in vivo, C57BL/6J mice; details: vs HF; HF+Metf, 0.3 g/kg/day oral, 4 weeks
# Protocol: as §1, §5
# CPT-1a = test: Semiquantitative RT-PCR in liver tissue: CPT-1a; type: in vivo, C57BL/6J mice; details: vs HF; HF+Metf, 0.3 g/kg/day oral, 4 weeks
# Protocol: as §1, §5
# PPARα = test: Western blot of PPARα protein in liver of HFD mice; details: compared to HF; HF+Metf, 0.3 g/kg/day oral, 4 weeks
# membrane GLUT4 [7] = test: Western blot of skeletal muscle membrane GLUT4 in HFD mice; details: compared to HF; HF+Metf, 0.3 g/kg/day oral, 4 weeks
# Protocol: (§6) The HFD mice were subdivided into 6 groups (9 per group) followed by 8-week induction. […] Following four-week treatment and feeding, the food was removed, and the mice were fasted for 12 h and then sacrificed. Tissue samples required were collected from the mice and weighted. Some of the tissue samples were immediately stored at −80° C. and frozen for subsequent target gene analysis. Plasma samples were collected via centrifugation of whole blood at 1600×g for 15 min at 4° C., followed by plasma separation within 30 min.
# (§7) We determined PPARα and FAS protein expression levels in liver tissue, PPARγ and FAS protein expression levels in adipose tissue, and membrane GLUT4 expression in skeletal muscle adipose. The total membrane fraction was collected with the buffer and determined as previously described. The membrane GLUT4, p-AMPK, and total AMPK protein content were determined by Western Blotting as previously described.
# FAS = test: Western blot of FAS protein in liver and adipose tissue of HFD mice; details: compared to HF; HF+Metf, 0.3 g/kg/day oral, 4 weeks
# Protocol: as §6, §7
# PPARγ = test: Western blot of PPARγ protein in liver and adipose tissue of HFD mice; details: compared to HF; HF+Metf, 0.3 g/kg/day oral, 4 weeks
# phospho-AMPK(Thr172) = test: Western blot of phospho-AMPK(Thr172)/total-AMPK in skeletal muscle and liver of HFD mice; details: compared to HF; HF+Metf, 0.3 g/kg/day oral, 4 weeks
# Protocol: as §6, §7
# [8] = HFD mice, HF+Feno, 250 mg/kg/day oral
# [9] = HFD mice, HF+Metf, 300 mg/kg/day oral
# [10] = plasma, HFD mice, HF+Metf, 300 mg/kg/day oral
compound,measurement,setting,value
"CC(C)OC(=O)C(C)(C)Oc1ccc(C(=O)c2ccc(Cl)cc2)cc1 [Feno, fenofibrate, reference compound]",Final body weight,"[1]; HF+Feno, 250 mg/kg/day oral",26.04 g
same,Food intake,"[1]; HF+Feno, 250 mg/kg/day oral",2.05 g/day/mouse
same,Weight gain,"[1]; HF+Feno, 250 mg/kg/day oral",0.46 g
same,Liver lipids: Total lipid,"[2]; HF+Feno, 250 mg/kg/day oral",62.0 mg/g
same,Liver lipids: Triacylglycerol,"[2]; HF+Feno, 250 mg/kg/day oral",48.6 µmol/g
same,Adipocyte area,"[3]; HF+Feno, 0.25 g/kg/day oral",6270.5 ± 165.4 μm^2
same,Blood glucose,"[4]; HF+Feno, 250 mg/kg/day oral",86.56 mg/dL
same,Plasma FFA,[4]; [8],0.86 meq/L
same,Insulin,[4]; [8],2.402 µg/L
same,Leptin,[4]; [8],7.507 ng/mL
same,TG,"[4]; plasma, HFD mice, HF+Feno, 250 mg/kg/day oral",83.35 mg/dL
"C=C(CC[C@@H](C)[C@H]1CC[C@H]2C3=C(C(=O)C[C@]12C)[C@@]1(C)CC[C@@H](O)[C@](C)(O)[C@@H]1C[C@@H]3O)C(C)C(=O)O (stereo partly shown) [AnK, Antcin K]",protein expression level of membrane GLUT4,"membrane GLUT4 [5]; 5, 10, and 25 μg/mL",increase
same,protein expression level of phospho-Akt(Ser473)/total-Akt(Ser473),[6]; AnK 10 and 25 μg/mL,increase
"CN(C)C(=N)N=C(N)N [Metf, metformin, reference compound]",Absolute tissue weight: Visceral fat,"[1]; EWAT plus RWAT, HF+Metf, 300 mg/kg/day oral",662 mg
same,Absolute tissue weight: Brown adipose tissue (BAT),"[1]; HF+Metf, 300 mg/kg/day oral",134 mg
same,Absolute tissue weight: Epididymal white adipose tissue (EWAT),"[1]; HF+Metf, 300 mg/kg/day oral",482 mg
same,Absolute tissue weight: Liver,"[1]; HF+Metf, 300 mg/kg/day oral",1960 mg
same,Absolute tissue weight: Mesenteric white adipose tissue (MWAT),"[1]; HF+Metf, 300 mg/kg/day oral",198 mg
same,Absolute tissue weight: Retroperitoneal white adipose tissue (RWAT),"[1]; HF+Metf, 300 mg/kg/day oral",180 mg
same,Absolute tissue weight: Spleen,"[1]; HF+Metf, 300 mg/kg/day oral",81 mg
same,Final body weight,"[1]; HF+Metf, 300 mg/kg/day oral",26.35 g
same,Food intake,"[1]; HF+Metf, 300 mg/kg/day oral",2.25 g/day/mouse
same,Weight gain,"[1]; HF+Metf, 300 mg/kg/day oral",0.52 g
same,Liver lipids: Total lipid,"[2]; HF+Metf, 300 mg/kg/day oral",61.1 mg/g
same,Liver lipids: Triacylglycerol,"[2]; HF+Metf, 300 mg/kg/day oral",49 µmol/g
same,Adipocyte area,"[3]; HF+Metf, 0.3 g/kg/day oral",6919.5 ± 195.1 μm^2
same,G6-Pase mRNA expression level in liver,G6-Pase,decreased
same,11β-HSD1 mRNA expression level in liver,11β-HSD1,decreased
same,SREBP-1c mRNA expression level in liver,SREBP-1c,decreased
same,aP2 mRNA expression level in liver,aP2,decreased
same,GPAT mRNA expression level in liver,GPAT,decreased
same,SREBP-2 mRNA expression level in liver,SREBP-2,decreased
same,CPT-1a mRNA expression level in liver,CPT-1a,increased
same,PPAR protein expression level in liver,PPARα,significantly increased
same,membrane expression level of GLUT4 in skeletal muscle,membrane GLUT4 [7],significantly increased
same,FAS protein expression level in adipose tissue,FAS,significantly decreased
same,FAS protein expression level in liver,FAS,significantly decreased
same,PPARγ protein expression level in adipose tissue,PPARγ,significantly decreased
same,PPARγ protein expression level in liver,PPARγ,significantly decreased
same,Blood glucose,"[4]; HF+Metf, 300 mg/kg/day oral",87.33 mg/dL
same,Plasma FFA,[4]; [9],0.85 meq/L
same,Insulin,[4]; [9],2.467 µg/L
same,Leptin,[4]; [9],7.359 ng/mL
same,TC,[4]; [10],117.20 mg/dL
same,TG,[4]; [10],82.07 mg/dL
same,expression level of p-AMPK/t-AMPK proteins in liver,phospho-AMPK(Thr172),significantly increased
same,expression level of phospho-AMPK/total-AMPK in skeletal muscle,phospho-AMPK(Thr172),significantly increased
insulin [reference compound],protein expression level of membrane GLUT4,membrane GLUT4 [5]; 100 nM insulin,increase
same,protein expression level of phospho-Akt(Ser473)/total-Akt(Ser473),[6]; 100 nM insulin,increase
